{
  "source": "ChEMBL document CHEMBL1155150",
  "about": "(Antimicrob Agents Chemother, 2007)",
  "key": {"[1]": {"tested_on": "Yersinia pestis", "experiment": "Antibacterial activity against Yersinia pestis delta CO92 by broth macrodilution method", "format": "functional"}, "[2]": {"tested_on": "Homo sapiens", "experiment": "Free Cmax in human at 1 g, iv", "format": "ADME, organism-based", "settings": "in vivo"}, "[3]": {"tested_on": "Homo sapiens", "experiment": "Free Cmin in human at 1 g, iv", "format": "ADME, organism-based", "settings": "in vivo"}, "[4]": {"experiment": "Half life in human plasma at 1 g, iv", "format": "ADME, organism-based"}, "[5]": {"tested_on": "Homo sapiens", "experiment": "Free Cmax in human at 500 mg, po", "format": "ADME, organism-based", "settings": "in vivo"}, "[6]": {"tested_on": "Homo sapiens", "experiment": "Free AUC (0 to 24 hrs) in human plasma at 500 mg, po", "format": "ADME, organism-based", "settings": "in vivo"}, "[7]": {"experiment": "Half life in human plasma at 500 mg, po", "format": "ADME, organism-based"}},
  "data": [
    {"compound": "[H]/N=C(/N)N[C@H]1[C@H](O)[C@@H](O)[C@H](O[C@@H]2O[C@@H](C)[C@](O)(C=O)[C@H]2O[C@@H]2O[C@@H](CO)[C@H](O)[C@@H](O)[C@@H]2NC)[C@@H](N/C(N)=N\\[H])[C@@H]1O", "note": "[STREPTOMYCIN]", "values": [
      {"measurement": "MBC", "setting": "[1]", "value": 2, "unit": "mg/L"},
      {"measurement": "MIC", "setting": "[1]", "value": 2, "unit": "mg/L"},
      {"measurement": "fCmax", "setting": "[2]", "value": 38, "unit": "mg/L"},
      {"measurement": "fCmin", "setting": "[3]", "value": 2, "unit": "mg/L"},
      {"measurement": "half-life", "setting": "[4]", "value": 2.5, "unit": "h"}
    ]},
    {"compound": "C[C@H]1COc2c(N3CCN(C)CC3)c(F)cc3c(=O)c(C(=O)O)cn1c23.C[C@H]1COc2c(N3CCN(C)CC3)c(F)cc3c(=O)c(C(=O)O)cn1c23.O", "note": "[LEVOFLOXACIN]", "values": [
      {"measurement": "MBC", "setting": "[1]", "value": 0.125, "unit": "mg/L"},
      {"measurement": "MIC", "setting": "[1]", "value": 0.06, "unit": "mg/L"},
      {"measurement": "fCmax", "setting": "[5]", "value": 3.6, "unit": "mg/L"},
      {"measurement": "fAUC", "setting": "[6]", "value": 36, "unit": "µg·h/mL"},
      {"measurement": "half-life", "setting": "[7]", "value": 7, "unit": "h"}
    ]}
  ]
}
